Assay results reported in US11767307B2, “Litter for promoting pet's in-litter elimination” (SPECIALITES PET FOOD, priority 2018, dated 2023).

Columns and labels:
cats = details: 21 commercial cat attractants tested; cited from earlier work
cat elimination behavior = assay: Two-litter-box test of cat elimination behavior (deposits weight in litter); type: in vivo, cats; details: measured on non-soiled litters the first day of use
From the text: (§1) Twenty cats in 5 living rooms (4 cats per room) were involved in the study. The study lasted 4 days and two litter boxes containing two different products, i.e. a control cat litter (Litter 1, non-clumping clay) and an experimental cat litter (Litter 2) sprayed with 0.1% of composition A according to Example 1, were presented to the cats.
Diet was controlled for each test by measuring food intake. The temperature of the rooms was controlled. In each room, an equal proportion of males/females was respected.
as §1, with “study. Two” for “study. The study lasted 4 days and two”, “(Litter 3,” for “(Litter 1,”, “(Litter 4)” for “(Litter 2)”, “composition B” for “composition A”

| SMILES | preference by cats for urine elimination versus control (cats) | in-litter cat elimination promoting (attractant) effect (cat elimination behavior) |
| --- | --- | --- |
| CC(C)(CCO)SC[C@H](N)C(=O)O [L-Felinine] | significantly preferred |  |
| CC1(C)OCC(CO)O1 (centres unmarked) [composition A, 2,2-dimethyl-1,3-dioxolane-4-methanol] |  | in-litter cat elimination promoting (or attractant) effect |
